In US20260184710A1, “CASITAS B-LINEAGE LYMPHOMA PROTOONCOGENE B (CBL-B) DEGRADING COMPOUNDS AND ASSOCIATED METHODS OF USE” (Arvinas Operations, Inc., priority 2022, published 2026):

Target: T1, Cbl-b (Homo sapiens, UniProt Q13191)
T1 construct: Cbl-b-HiBit KI Jurkat Cells were purchased from Promega; host or cells: Cbl-b-HiBiT knock-in Jurkat cells
Assay: Cbl-b Degradation Method B (Nano-Glo HiBiT lytic detection)
Format: cell-based
Settings: Cbl-b-HiBit KI Jurkat Cells, incubated at least 6-24 hours; for DC50: half maximal degradation, read-out: Cbl-b Degredation Method B IC50; for Dmax: maximum degradation observed, read-out: Cbl-b Degredation Method B Dmax (%)
How it was run: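 Cbl-b-HiBiT knock-in Jurkat cells (20,000/well) were treated after ~24 h plating with an 11-point 1:3 series for 6-24 h at 37° C. Remaining Cbl-b measured by Nano-Glo HiBiT lytic luminescence. DC50 and Dmax expressed as % of control.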

T1 sequence (Q13191 whole entry): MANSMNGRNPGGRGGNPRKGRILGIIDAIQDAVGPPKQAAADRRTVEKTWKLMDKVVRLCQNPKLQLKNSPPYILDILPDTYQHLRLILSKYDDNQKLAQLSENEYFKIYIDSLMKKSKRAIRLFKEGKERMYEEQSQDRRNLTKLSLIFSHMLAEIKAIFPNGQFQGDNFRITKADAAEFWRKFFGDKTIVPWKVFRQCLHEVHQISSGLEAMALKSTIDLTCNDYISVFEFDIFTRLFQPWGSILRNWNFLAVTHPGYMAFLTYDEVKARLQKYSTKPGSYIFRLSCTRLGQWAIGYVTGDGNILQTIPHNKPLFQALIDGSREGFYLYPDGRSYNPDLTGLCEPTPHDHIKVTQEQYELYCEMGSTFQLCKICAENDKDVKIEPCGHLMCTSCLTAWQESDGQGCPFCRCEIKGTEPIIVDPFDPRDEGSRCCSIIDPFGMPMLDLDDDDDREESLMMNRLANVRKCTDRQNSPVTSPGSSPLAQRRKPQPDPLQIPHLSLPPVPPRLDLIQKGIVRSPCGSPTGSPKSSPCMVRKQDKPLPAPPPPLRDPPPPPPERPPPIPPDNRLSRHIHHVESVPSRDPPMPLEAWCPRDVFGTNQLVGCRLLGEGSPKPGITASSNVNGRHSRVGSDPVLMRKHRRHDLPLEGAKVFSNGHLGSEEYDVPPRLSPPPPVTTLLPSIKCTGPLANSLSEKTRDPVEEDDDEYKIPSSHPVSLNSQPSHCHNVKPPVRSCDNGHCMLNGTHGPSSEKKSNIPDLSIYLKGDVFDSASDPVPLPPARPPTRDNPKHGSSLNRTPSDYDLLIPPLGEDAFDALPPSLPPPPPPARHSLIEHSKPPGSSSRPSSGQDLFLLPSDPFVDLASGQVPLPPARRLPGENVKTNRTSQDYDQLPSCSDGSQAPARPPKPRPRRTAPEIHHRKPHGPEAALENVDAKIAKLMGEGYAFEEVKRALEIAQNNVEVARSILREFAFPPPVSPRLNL

Structure (SMILES) | DC50 [nM] | Dmax [%]
C[C@@H]1CN(CC2CCC(OC3CCN(c4ccc5c(n4)[C@@H](C)N(C4CCC(=O)NC4=O)C5=O)CC3)CC2)CCN1Cc1cc2c(c(C(F)(F)F)c1)CN(c1cccc([C@]3(Cc4nncn4C)C[C@H](C#N)C3)c1)C2=O (single isomer, unassigned) [Example 239, (1rs&,3rs&)-3-[3-(6-{[(2R)-2-methyl-4-{[(1rs,4rs)-4-({1-[(7R*)-6-(2,6-dioxopiperidin-3-yl)-7-methyl-5-oxo-5H,6H,7H-pyrrolo[3,4-b]pyridin-2-yl]piperidin-4-yl}oxy)cyclohexyl]methyl}piperazin-1-yl]methyl}-1-oxo-4-(trifluoromethyl)-2,3-dihydro-1H-isoindol-2-yl)phenyl]-3-[(4-methyl-4H-1,2,4-triazol-3-yl)methyl]cyclobutane-1-carbonitrile] | < 5 | > 70
Cn1cnnc1CC1(c2cccc(N3Cc4c(cc(CN5CCN(CCCOc6ccc7c(c6)C(=O)N(C6CCC(=O)NC6=O)C7=O)CC5)cc4C(F)(F)F)C3=O)c2)COC1 (stereo not shown) [Example 47, 2-(2,6-dioxopiperidin-3-yl)-5-[3-(4-{[2-(3-{3-[(4-methyl-4H-1,2,4-triazol-3-yl)methyl]oxetan-3-yl}phenyl)-3-oxo-7-(trifluoromethyl)-2,3-dihydro-1H-isoindol-5-yl]methyl}piperazin-1-yl)propoxy]-2,3-dihydro-1H-isoindole-1,3-dione] | > 500 | 
COc1c(N2CCC(OC3CCC4(CC3)CN(c3cc5c(c(C(F)(F)F)c3)CN(c3cccc(C6(Cc7nncn7C)COC6)c3)C5=O)C4)CC2)ccc2c1CN(C1CCC(=O)NC1=O)C2=O (stereo not shown) [Example 149, 3-[4-methoxy-5-[4-[[2-[2-[3-[3-[(4-methyl-1,2,4-triazol-3-yl)methyl]oxetan-3-yl]phenyl]-3-oxo-7-(trifluoromethyl)isoindolin-5-yl]-2-azaspiro[3.5]nonan-7-yl]oxy]-1-piperidyl]-1-oxo-isoindolin-2-yl]piperidine-2,6-dione] | 5 to 50 | 35 to 70
Cn1cnnc1C[C@]1(c2cccc(N3Cc4c(cc(N5CC6(CCN(C(=O)C7CCN(c8ccc9c(c8)C(=O)N(C8CCC(=O)NC8=O)C9=O)CC7)CC6)C5)cc4C(F)(F)F)C3=O)c2)C[C@H](C#N)C1 (stereo partly shown) [Example 146, 3-[3-[6-[7-[1-[2-(2,6-dioxo-3-piperidyl)-1,3-dioxo-isoindolin-5-yl]piperidine-4-carbonyl]-2,7-diazaspiro[3.5]nonan-2-yl]-1-oxo-4-(trifluoromethyl)isoindolin-2-yl]phenyl]-3-[(4-methyl-1,2,4-triazol-3-yl)methyl]cyclobutanecarbonitrile] | 5 to 50 | < 35
Cn1cnnc1CC1(c2cccc(-n3cc4c(C(F)(F)F)cc(CN5CCC(CN6CCC(CN7CCN(c8ccc9c(c8F)CN(C8CCC(=O)NC8=O)C9=O)CC7)CC6)CC5)cc4n3)c2)COC1 (stereo not shown) [Example 299, 3-{4-fluoro-5-[4-({1-[(1-{[2-(3-{3-[(4-methyl-4H-1,2,4-triazol-3-yl)methyl]oxetan-3-yl}phenyl)-4-(trifluoromethyl)-2H-indazol-6-yl]methyl}piperidin-4-yl)methyl]piperidin-4-yl}methyl)piperazin-1-yl]-1-oxo-2,3-dihydro-1H-isoindol-2-yl}piperidine-2,6-dione] | > 500 | 
COc1c(N2CCC(C(=O)N3CCC4(CC3)CN(c3cc5c(c(C(F)(F)F)c3)CN(c3cccc(C6(Cc7nncn7C)COC6)c3)C5=O)C4)CC2)ccc2c1CN(C1CCC(=O)NC1=O)C2=O (stereo not shown) [Example 265, 3-[4-methoxy-5-(4-{2-[2-(3-{3-[(4-methyl-4H-1,2,4-triazol-3-yl)methyl]oxetan-3-yl}phenyl)-3-oxo-7-(trifluoromethyl)-2,3-dihydro-1H-isoindol-5-yl]-2,7-diazaspiro[3.5]nonane-7-carbonyl}piperidin-1-yl)-1-oxo-2,3-dihydro-1H-isoindol-2-yl]piperidine-2,6-dione] | 5 to 50 | < 35
Cn1cnnc1CC1(c2cccc(N3Cc4c(cc(CN[C@H]5CC[C@H](N6CCN(c7ccc8c(c7)C(=O)N(C7CCC(=O)NC7=O)C8=O)CC6)CC5)cc4C(F)(F)F)C3=O)c2)COC1 (stereo partly shown) [Example 43, 2-(2,6-dioxopiperidin-3-yl)-5-{4-[(1r,4r)-4-({[2-(3-{3-[(4-methyl-4H-1,2,4-triazol-3-yl)methyl]oxetan-3-yl}phenyl)-3-oxo-7-(trifluoromethyl)-2,3-dihydro-1H-isoindol-5-yl]methyl}amino)cyclohexyl]piperazin-1-yl}-2,3-dihydro-1H-isoindole-1,3-dione] | 5 to 50 | < 35
Cn1cnnc1CC1(c2cccc(N3Cc4c(cc(CN5CCC(C6CCN(c7ccc8c(c7)C(=O)N(C7CCC(=O)NC7=O)C8=O)CC6)CC5)cc4C(F)(F)F)C3=O)c2)COC1 (stereo not shown) [Example 26, 2-(2,6-dioxopiperidin-3-yl)-5-(1′-{[2-(3-{3-[(4-methyl-4H-1,2,4-triazol-3-yl)methyl]oxetan-3-yl}phenyl)-3-oxo-7-(trifluoromethyl)-2,3-dihydro-1H-isoindol-5-yl]methyl}-[4,4′-bipiperidin]-1-yl)-2,3-dihydro-1H-isoindole-1,3-dione] | > 500 | 
Cn1cnnc1CC1(c2cccc(N3Cc4c(cc(CN5CC6(CCN(c7ccc8c(c7)C(=O)N(C7CCC(=O)NC7=O)C8=O)CC6)C5)cc4C(F)(F)F)C3=O)c2)COC1 (stereo not shown) [Example 49, 2-(2,6-dioxopiperidin-3-yl)-5-(2-{[2-(3-{3-[(4-methyl-4H-1,2,4-triazol-3-yl)methyl]oxetan-3-yl}phenyl)-3-oxo-7-(trifluoromethyl)-2,3-dihydro-1H-isoindol-5-yl]methyl}-2,7-diazaspiro[3.5]nonan-7-yl)-2,3-dihydro-1H-isoindole-1,3-dione] | > 500 | 
CC(C)n1c(=O)n(C2CCC(=O)NC2=O)c2ccc(N3CCC(O[C@H]4CC[C@H](CN5CCN(Cc6cc7c(c(C(F)(F)F)c6)CN(c6cccc([C@]8(Cc9nncn9C)C[C@@H](C#N)C8)c6)C7=O)CC5)CC4)CC3)cc21 (stereo partly shown) [Example 228, (1r,3r)-3-[(4-methyl-4H-1,2,4-triazol-3-yl)methyl]-3-(3-{1-oxo-6-[(4-{[(1r,4r)-4-({1-[1-(2,6-dioxopiperidin-3-yl)-2-oxo-3-(propan-2-yl)-2,3-dihydro-1H-1,3-benzodiazol-5-yl]piperidin-4-yl}oxy)cyclohexyl]methyl}piperazin-1-yl)methyl]-4-(trifluoromethyl)-2,3-dihydro-1H-isoindol-2-yl}phenyl)cyclobutane-1-carbonitrile] | < 5 | > 70

Results, then the compound that gave them:

DC50 [nM] | Dmax [%] | Structure (SMILES)
< 5 | 35 to 70 | CCn1cnnc1CC1(c2cccc(N3Cc4c(cc(CN5CCN(C[C@H]6CC[C@H](OC7CCN(c8ccc9c(n8)C(C)N(C8CCC(=O)NC8=O)C9=O)CC7)CC6)CC5)cc4C(F)(F)F)C3=O)c2)COC1 (mixture of isomers) [Example 235, rac-3-[7-methyl-5-oxo-2-(4-{[(1r,4r)-4-[(4-{[2-(3-{3-[(4-ethyl-4H-1,2,4-triazol-3-yl)methyl]oxetan-3-yl}phenyl)-3-oxo-7-(trifluoromethyl)-2,3-dihydro-1H-isoindol-5-yl]methyl}piperazin-1-yl)methyl]cyclohexyl]oxy}piperidin-1-yl)-5H,6H,7H-pyrrolo[3,4-b]pyridin-6-yl]piperidine-2,6-dione]
> 500 |  | Cn1cnnc1CC1(c2cccc(N3Cc4c(cc(CN5CC(CN6CCN(C7CCN(c8ccc9c(c8)C(=O)N(C8CCC(=O)NC8=O)C9=O)CC7)CC6)C5)cc4C(F)(F)F)C3=O)c2)COC1 (stereo not shown) [Example 67, 2-(2,6-dioxopiperidin-3-yl)-5-(4-{4-[(1-{[2-(3-{3-[(4-methyl-4H-1,2,4-triazol-3-yl)methyl]oxetan-3-yl}phenyl)-3-oxo-7-(trifluoromethyl)-2,3-dihydro-1H-isoindol-5-yl]methyl}azetidin-3-yl)methyl]piperazin-1-yl}piperidin-1-yl)-2,3-dihydro-1H-isoindole-1,3-dione]
> 500 |  | Cn1cnnc1CC1(c2cccc(N3Cc4c(cc(CN5CCC6(CC5)CCN(CC5CCN(c7ccc8c(c7)C(=O)N(C7CCC(=O)NC7=O)C8=O)CC5)CC6)cc4C(F)(F)F)C3=O)c2)COC1 (stereo not shown) [Example 45, 2-(2,6-dioxopiperidin-3-yl)-5-{4-[(9-{[2-(3-{3-[(4-methyl-4H-1,2,4-triazol-3-yl)methyl]oxetan-3-yl}phenyl)-3-oxo-7-(trifluoromethyl)-2,3-dihydro-1H-isoindol-5-yl]methyl}-3,9-diazaspiro[5.5]undecan-3-yl)methyl]piperidin-1-yl}-2,3-dihydro-1H-isoindole-1,3-dione]
< 5 | > 70 | Cn1cnnc1CC(C)(C)c1cccc(N2Cc3c(cc(CN4CCC[C@H](CN5CCN(C[C@H]6CC[C@@H](OC7CCN(c8ccc9c(c8F)CN(C8CCC(=O)NC8=O)C9=O)CC7)CC6)CC5)C4)cc3C(F)(F)F)C2=O)c1 (stereo partly drawn) [Example 164, 3-[4-fluoro-1-oxo-5-(4-{[(1r,4r)-4-[(4-{[(3S)-1-[(2-{3-[2-methyl-1-(4-methyl-4H-1,2,4-triazol-3-yl)propan-2-yl]phenyl}-3-oxo-7-(trifluoromethyl)-2,3-dihydro-1H-isoindol-5-yl)methyl]piperidin-3-yl]methyl}piperazin-1-yl)methyl]cyclohexyl]oxy}piperidin-1-yl)-2,3-dihydro-1H-isoindol-2-yl]piperidine-2,6-dione]
